Our source for the inhibition values is article PMC6934184, “Selective DNA-PKcs inhibition extends the therapeutic index of localized radiotherapy and chemotherapy” (The Journal of Clinical Investigation, 2019).

This experiment deals with T1, EPHB2 (Homo sapiens, UniProt P29323).
T1 construct: purchased Thermo Fisher Scientific (Life Technologies) SelectScreen
Description: SelectScreen Z'LYTE. In kind it is biochemical. In a few lines: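 Percent values come from Thermo SelectScreen profiling of NU5455, combining activity and binding assays. CSF1R was run in Z'LYTE format at Km app ATP, and CAMK1 in Adapta format with ATP listed at 10.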

T1 sequence (P29323 19-1055): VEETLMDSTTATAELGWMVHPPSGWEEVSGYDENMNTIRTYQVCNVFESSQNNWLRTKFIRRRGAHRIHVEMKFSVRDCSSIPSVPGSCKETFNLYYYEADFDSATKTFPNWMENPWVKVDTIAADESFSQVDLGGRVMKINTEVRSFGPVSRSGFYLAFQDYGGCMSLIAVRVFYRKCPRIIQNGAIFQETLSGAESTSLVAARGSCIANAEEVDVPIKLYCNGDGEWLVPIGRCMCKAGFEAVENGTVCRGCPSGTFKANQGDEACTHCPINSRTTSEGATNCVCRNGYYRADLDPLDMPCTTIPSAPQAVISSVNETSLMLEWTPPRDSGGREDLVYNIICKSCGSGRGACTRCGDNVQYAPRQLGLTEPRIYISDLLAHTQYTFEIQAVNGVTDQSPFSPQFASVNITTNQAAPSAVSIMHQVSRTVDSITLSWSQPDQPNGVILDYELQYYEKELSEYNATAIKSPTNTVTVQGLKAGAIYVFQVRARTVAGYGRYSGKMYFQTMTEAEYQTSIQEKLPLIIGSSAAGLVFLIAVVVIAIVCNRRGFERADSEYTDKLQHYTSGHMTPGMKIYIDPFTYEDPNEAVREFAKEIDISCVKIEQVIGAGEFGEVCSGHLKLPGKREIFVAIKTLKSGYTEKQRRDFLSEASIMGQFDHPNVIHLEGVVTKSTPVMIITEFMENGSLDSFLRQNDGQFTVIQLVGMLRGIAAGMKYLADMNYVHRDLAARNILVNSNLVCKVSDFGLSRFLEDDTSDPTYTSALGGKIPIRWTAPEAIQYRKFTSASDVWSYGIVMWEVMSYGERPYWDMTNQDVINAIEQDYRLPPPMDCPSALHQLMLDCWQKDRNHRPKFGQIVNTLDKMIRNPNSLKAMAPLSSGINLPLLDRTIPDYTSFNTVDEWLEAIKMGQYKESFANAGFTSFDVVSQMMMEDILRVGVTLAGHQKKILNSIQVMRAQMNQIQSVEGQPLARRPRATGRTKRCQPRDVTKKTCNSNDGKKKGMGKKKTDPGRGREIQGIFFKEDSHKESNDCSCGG

On to `CN(C(=O)CN1CCOCC1)c1ccc2sc3c(-c4cccc5c(=O)cc(N6CC7CCC(C6)O7)oc45)cccc3c2c1` [NU5455], for which the inhibition (commonly the change of the read-out against control, counted positive when it falls) at 1 µM was -0.1%.
